These results are taken from ChEMBL document CHEMBL3396976, “Design, synthesis and evaluation of isoxazolo[5,4-d]pyrimidin-4(5H)-one derivatives as antithrombotic agents” (Bioorg Med Chem Lett, 2015).

Activity calls are given as the source filed them. The calls are words filed in the database; no cut-off is given here. Some results are limits rather than exact numbers.

Test [1] concerns the target T1, Coagulation factor X (Homo sapiens, UniProt P00742). The test is described as follows: Inhibition of human F10a using chromogenic substrate S-2765 preincubated for 10 mins at 0.1 uM by spectrophotometry.
Test [2] has as its system Plasma. The test is described as follows: Anticoagulant activity in human plasma assessed as concentration required to double prothrombin time. In kind it is functional.
The target in test [3] is T1, Coagulation factor X. The test is described as follows: Inhibition of human F10a using chromogenic substrate S-2765 preincubated for 10 mins by spectrophotometry.
Test [4] has as its target Prothrombin (Homo sapiens, UniProt P00734). Nature of the test: Inhibition of thrombin (unknown origin) using chromogenic substrate S-2238 by spectrophotometry.
The species entered for test [5] is Homo sapiens. Nature of the test: Selectivity ratio of IC50 for thrombin (unknown origin) to IC50 for human F10a.
Test [6] is filed under the species Homo sapiens. The test is described as follows: Selectivity ratio of IC50 for trypsin (unknown origin) to IC50 for human F10a.

T1 sequence (P00742 41-179 limits assumed): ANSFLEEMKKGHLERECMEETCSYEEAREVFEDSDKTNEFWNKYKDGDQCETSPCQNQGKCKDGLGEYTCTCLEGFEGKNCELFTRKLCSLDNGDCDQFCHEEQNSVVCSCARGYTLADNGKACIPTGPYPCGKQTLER
T1 sequence (P00742 235-488 limits assumed): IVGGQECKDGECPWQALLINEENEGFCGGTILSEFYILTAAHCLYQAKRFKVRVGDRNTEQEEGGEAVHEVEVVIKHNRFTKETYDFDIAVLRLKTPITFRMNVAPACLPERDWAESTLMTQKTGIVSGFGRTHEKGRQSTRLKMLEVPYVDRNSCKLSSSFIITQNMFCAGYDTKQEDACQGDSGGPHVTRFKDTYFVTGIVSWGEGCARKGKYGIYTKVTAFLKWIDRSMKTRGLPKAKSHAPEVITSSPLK

Usually inhibition stands for how much of the control response was suppressed. Usually IC50 stands for the concentration that inhibits the measured activity by half. Lower therefore signals greater potency. As to `COc1ccc(-c2noc3ncn(-c4ccc(C(=O)Nc5ccccn5)cc4)c(=O)c23)cc1`, the inhibition in test [1] was 89%. In test [2], the 2PT was found to be 3.37 µM. Also, the IC50 in test [3] is 18 nM; in test [4] it was greater than 20 µM. Moreover, the Ratio IC50 in test [5] and in test [6] was greater than 1000 each time. Consider `O=C1COCCN1c1ccc(-n2cnc3onc(-c4ccc(Cl)cc4)c3c2=O)cc1`, for which the inhibition in test [1] turned out to be 56%. In test [1], `Cc1ccc(-c2noc3ncn(-c4ccc(N5CCOCC5=O)cc4)c(=O)c23)cc1` came in with an inhibition of 43%. `COc1ccc(-c2noc3ncn(-c4ccc(N5CCOCC5=O)cc4)c(=O)c23)cc1OC`: the inhibition in test [1] is 77%. With `CCc1nc2onc(-c3ccc(OC)cc3)c2c(=O)n1-c1ccc(N2CCOCC2=O)cc1`, in test [1], the inhibition came out at 36%.

`CCc1nc2onc(-c3ccc(C)cc3)c2c(=O)n1-c1ccc(N2CCOCC2=O)cc1`: in test [1], the inhibition result was “inactive”. For the compound `COc1ccc(-c2noc3ncn(-c4ccc(N5CCOCC5=O)cc4)c(=O)c23)cc1`, in test [1], the inhibition was determined as 78%. Take `O=C1COCCN1c1ccc(-n2cnc3onc(-c4ccccc4)c3c2=O)cc1`: the inhibition in test [1] was determined as 27%. Same read-out and setting: then `Cc1nc2onc(-c3ccccc3)c2c(=O)n1-c1ccc(N2CCOCC2=O)cc1`, with “inactive”; and `CCc1nc2onc(-c3ccc(Cl)cc3)c2c(=O)n1-c1ccc(N2CCOCC2=O)cc1`, with “inactive”.

The compound `COc1ccc(-c2noc3ncn(-c4ccc(C(=O)NC5CCCC5)cc4)c(=O)c23)cc1` yielded an inhibition in test [1] of 75%. As to `Cc1ccc(-c2noc3nc(C)n(-c4ccc(N5CCOCC5=O)cc4)c(=O)c23)cc1`, in test [1], the inhibition entry is “inactive”.

In the case of `COc1cc(-c2noc3ncn(-c4ccc(N5CCOCC5=O)cc4)c(=O)c23)ccc1OC(C)=O`, the inhibition in test [1] is 98%. Moreover, the 2PT in test [2] turned out to be 2.12 µM. Besides, the IC50 in test [3] was 13 nM; in test [4], greater than 20 µM. Further, the Ratio IC50 in test [5] and in test [6] was greater than 1000 throughout. In turn, `COc1ccc(-c2noc3ncn(-c4ccc(C(=O)N5CCCC5)cc4)c(=O)c23)cc1` came in with an inhibition in test [1] of 46%. In test [1], `CCN(CC)C(=O)c1ccc(-n2cnc3onc(-c4ccc(OC)cc4)c3c2=O)cc1` yielded an inhibition of 83%. `COc1ccc(-c2noc3ncn(-c4ccc(C(=O)N5CCOCC5)cc4)c(=O)c23)cc1` came in with an inhibition in test [1] of 37%.

For the compound `COc1ccc(-c2noc3ncn(-c4ccc(C(=O)N(C)c5ccccc5)cc4)c(=O)c23)cc1`, the inhibition in test [1] is 47%.

`Cc1nc2onc(-c3ccc([N+](=O)[O-])cc3)c2c(=O)n1-c1ccc(N2CCOCC2=O)cc1`: the inhibition entry in test [1] was “inactive”. On the same count and under the same terms, then `CCc1nc2onc(-c3ccc([N+](=O)[O-])cc3)c2c(=O)n1-c1ccc(N2CCOCC2=O)cc1`, with “inactive”; and `CCc1nc2onc(-c3ccccc3)c2c(=O)n1-c1ccc(N2CCOCC2=O)cc1`, with “inactive”. The same measure, in the same setting: the same measure for `O=C(NC[C@H]1CN(c2ccc(N3CCOCC3=O)cc2)C(=O)O1)c1ccc(Cl)s1`: “Active”; for `CCc1nc2onc(-c3ccc(OC)c(OC)c3)c2c(=O)n1-c1ccc(N2CCOCC2=O)cc1`: 42%. Still for that read-out and setting: then `COc1ccc(-c2noc3ncn(-c4ccc(C(=O)Nc5ccccc5)cc4)c(=O)c23)cc1`, with 81%; and `COc1ccc(-c2noc3nc(C)n(-c4ccc(N5CCOCC5=O)cc4)c(=O)c23)cc1OC`, with 47%. For `COc1ccc(-c2noc3ncn(-c4ccc(C(=O)NC5CCCCC5)cc4)c(=O)c23)cc1`, the inhibition in test [1] came out at 72%. Turning to `Cc1nc2onc(-c3ccc(Cl)cc3)c2c(=O)n1-c1ccc(N2CCOCC2=O)cc1`, the inhibition in test [1] worked out at 41%. Regarding `O=C1COCCN1c1ccc(-n2cnc3onc(-c4ccc([N+](=O)[O-])cc4)c3c2=O)cc1`, in test [1], the inhibition entry was “inactive”. In test [1], `COc1ccc(-c2noc3ncn(-c4ccc(C(=O)N5CCCCC5)cc4)c(=O)c23)cc1` yielded an inhibition of 54%. Regarding `CCCNC(=O)c1ccc(-n2cnc3onc(-c4ccc(OC)cc4)c3c2=O)cc1`, the inhibition in test [1] came out at 83%. Take `COc1ccc(-c2noc3nc(C)n(-c4ccc(N5CCOCC5=O)cc4)c(=O)c23)cc1`: in test [1], the inhibition is 55%.
